Source: US20090047221A1 (NIPRI LIMITED, priority 2004, published 2009)

System: cancer cell line MDA-MB-468
Experiment: Combination index with known cancer drugs against proliferation (Calcusyn software)
Format: cell-based
Text: A combination index of less than 0.1 indicates very strong synergy; a combination index of 0.1 to 0.3 indicates strong synergism; a combination index of 0.3 to 0.7 indicates synergism; a combination index of 0.7 to 0.85 indicates moderate synergism; a combination index of 0.85 to 0.9 indicates slight synergism and a combination index of 0.9 to 1.1 indicates only very slight synergism, said combination being close to merely additive.
The combination index may be calculated using calcusyn software.
Evidence of synergy was determined by calculation of the combination index using Calcusyn software.
The MTT assay was used initially to determine the anti-proliferative activity of the test compounds. In the MTT assay a yellow thiazolyl blue tetrazolium bromide salt (MTT) is reduced, in metabolically active cells, to form insoluble purple formazan crystals which are solubilised by the addition of dimethyl sulphoxide (DMSO). Absorbance readings can then be determined spectrophotometrically and a relationship established between control untreated cells and drug treated cells enabling the quantification of anti-proliferative changes as a result of drug treatment (Mosmann, 1983).
Wells containing medium only were used as blanks. Following the attachment period, cells were treated with appropriate drug concentrations (20 μl added per well). 40 mg/ml stock drug solutions, in DMSO, were stored at −20° C. and on the day of drug treatment working solutions of 4 mg/ml were prepared in medium which was further diluted to achieve final drug dilution volumes of 20 μl. Initial screening was determined over a concentration range of 1-200 μg/ml. For potent compounds the assay was repeated over a narrower concentration range to determine accurate IC50 values. Cells were exposed to drug for 96 h continual exposure (37° C., 5% CO2). Following the 96 h incubation, 50 μl MTT solution (1 g MTT/500 ml PBS) was added per well and the plates were further incubated for 4 h (37° C., 5% CO2). After incubation the MTT and medium was removed from the wells and 100 μl DMSO added per well. Plates were agitated on an orbital mixer platform (Stuart Scientific) for 10 minutes. Absorbance was measured at 570 nm on a Biotrak II (Amersham Bioscience) plate reader. IC50 values were calculated comparing control and drug treated cells.

## CCCCC/C=C\C/C=C\C/C=C\CCCCCOC(=O)c1ccc2c(c1O)C(=O)OC(C)C2 (racemic) [ALM-43, γ-Linolenyl Ester]
Cisplatin 1 × 10^−2 mol/L, ALM compound 0.1 μg/ml
  Combination Index: 0.063
Cisplatin 1 × 10^−2 mol/L, ALM compound 0.5 μg/ml
  Combination Index: 0.003
Cisplatin 1 × 10^−2 mol/L, ALM compound 1.0 μg/ml
  Combination Index: 0.007
Cisplatin 1 × 10^−2 mol/L, ALM compound 5.0 μg/ml
  Combination Index: 0.038
Cisplatin 1 × 10^−3 mol/L, ALM compound 0.1 μg/ml
  Combination Index: No
Cisplatin 1 × 10^−3 mol/L, ALM compound 0.5 μg/ml
  Combination Index: No
Cisplatin 1 × 10^−3 mol/L, ALM compound 1.0 μg/ml
  Combination Index: No
Cisplatin 1 × 10^−3 mol/L, ALM compound 5.0 μg/ml
  Combination Index: No
Cisplatin 1 × 10^−4 mol/L, ALM compound 0.1 μg/ml
  Combination Index: No
Cisplatin 1 × 10^−4 mol/L, ALM compound 0.5 μg/ml
  Combination Index: No
Cisplatin 1 × 10^−4 mol/L, ALM compound 1.0 μg/ml
  Combination Index: No
Cisplatin 1 × 10^−4 mol/L, ALM compound 5.0 μg/ml
  Combination Index: No
Cisplatin 1 × 10^−5 mol/L, ALM compound 0.1 μg/ml
  Combination Index: No
Cisplatin 1 × 10^−5 mol/L, ALM compound 0.5 μg/ml
  Combination Index: No
Cisplatin 1 × 10^−5 mol/L, ALM compound 1.0 μg/ml
  Combination Index: No
Cisplatin 1 × 10^−5 mol/L, ALM compound 5.0 μg/ml
  Combination Index: No
Cisplatin 1 × 10^−6 mol/L, ALM compound 0.1 μg/ml
  Combination Index: No
Cisplatin 1 × 10^−6 mol/L, ALM compound 0.5 μg/ml
  Combination Index: No
Cisplatin 1 × 10^−6 mol/L, ALM compound 1.0 μg/ml
  Combination Index: No
Cisplatin 1 × 10^−6 mol/L, ALM compound 5.0 μg/ml
  Combination Index: No
Cisplatin 1 × 10^−7 mol/L, ALM compound 0.1 μg/ml
  Combination Index: 0.636
Cisplatin 1 × 10^−7 mol/L, ALM compound 0.5 μg/ml
  Combination Index: 0.612
Cisplatin 1 × 10^−7 mol/L, ALM compound 1.0 μg/ml
  Combination Index: No
Cisplatin 1 × 10^−7 mol/L, ALM compound 5.0 μg/ml
  Combination Index: No
Cisplatin 1 × 10^−8 mol/L, ALM compound 0.1 μg/ml
  Combination Index: 0.199
Cisplatin 1 × 10^−8 mol/L, ALM compound 0.5 μg/ml
  Combination Index: No
Cisplatin 1 × 10^−8 mol/L, ALM compound 1.0 μg/ml
  Combination Index: No
Cisplatin 1 × 10^−8 mol/L, ALM compound 5.0 μg/ml
  Combination Index: No
Cisplatin 1 × 10^−9 mol/L, ALM compound 0.1 μg/ml
  Combination Index: 0.054
Cisplatin 1 × 10^−9 mol/L, ALM compound 0.5 μg/ml
  Combination Index: 0.536
Cisplatin 1 × 10^−9 mol/L, ALM compound 1.0 μg/ml
  Combination Index: No
Cisplatin 1 × 10^−9 mol/L, ALM compound 5.0 μg/ml
  Combination Index: No
Doxorubicin 1 × 10^−4 mol/L, ALM compound 0.1 μg/ml
  Combination Index: No
Doxorubicin 1 × 10^−4 mol/L, ALM compound 0.5 μg/ml
  Combination Index: No
Doxorubicin 1 × 10^−4 mol/L, ALM compound 1.0 μg/ml
  Combination Index: No
Doxorubicin 1 × 10^−4 mol/L, ALM compound 5.0 μg/ml
  Combination Index: No
Doxorubicin 1 × 10^−5 mol/L, ALM compound 0.1 μg/ml
  Combination Index: 0.385
Doxorubicin 1 × 10^−5 mol/L, ALM compound 0.5 μg/ml
  Combination Index: 0.700
Doxorubicin 1 × 10^−5 mol/L, ALM compound 1.0 μg/ml
  Combination Index: 0.278
Doxorubicin 1 × 10^−5 mol/L, ALM compound 5.0 μg/ml
  Combination Index: 0.457
Etoposide 1 × 10^−4 mol/L, ALM compound 0.1 μg/ml
  Combination Index: 0.399
Etoposide 1 × 10^−4 mol/L, ALM compound 0.5 μg/ml
  Combination Index: 0.289
Etoposide 1 × 10^−4 mol/L, ALM compound 1.0 μg/ml
  Combination Index: 0.418
Etoposide 1 × 10^−4 mol/L, ALM compound 5.0 μg/ml
  Combination Index: 0.474
Etoposide 1 × 10^−5 mol/L, ALM compound 0.1 μg/ml
  Combination Index: No
Etoposide 1 × 10^−5 mol/L, ALM compound 0.5 μg/ml
  Combination Index: No
Etoposide 1 × 10^−5 mol/L, ALM compound 1.0 μg/ml
  Combination Index: No
Etoposide 1 × 10^−5 mol/L, ALM compound 5.0 μg/ml
  Combination Index: No
Etoposide 1 × 10^−6 mol/L, ALM compound 0.1 μg/ml
  Combination Index: No
Etoposide 1 × 10^−6 mol/L, ALM compound 0.5 μg/ml
  Combination Index: 0.865
Etoposide 1 × 10^−6 mol/L, ALM compound 1.0 μg/ml
  Combination Index: No
Etoposide 1 × 10^−6 mol/L, ALM compound 5.0 μg/ml
  Combination Index: No
Etoposide 1 × 10^−7 mol/L, ALM compound 0.1 μg/ml
  Combination Index: 0.473
Etoposide 1 × 10^−7 mol/L, ALM compound 0.5 μg/ml
  Combination Index: 0.305
Etoposide 1 × 10^−7 mol/L, ALM compound 1.0 μg/ml
  Combination Index: No
Etoposide 1 × 10^−7 mol/L, ALM compound 5.0 μg/ml
  Combination Index: No
Etoposide 1 × 10^−8 mol/L, ALM compound 0.1 μg/ml
  Combination Index: 0.181
Etoposide 1 × 10^−8 mol/L, ALM compound 0.5 μg/ml
  Combination Index: 0.137
Etoposide 1 × 10^−8 mol/L, ALM compound 1.0 μg/ml
  Combination Index: No
Etoposide 1 × 10^−8 mol/L, ALM compound 5.0 μg/ml
  Combination Index: No
Etoposide 1 × 10^−9 mol/L, ALM compound 0.1 μg/ml
  Combination Index: 0.090
Etoposide 1 × 10^−9 mol/L, ALM compound 0.5 μg/ml
  Combination Index: 0.319
Etoposide 1 × 10^−9 mol/L, ALM compound 1.0 μg/ml
  Combination Index: No
Etoposide 1 × 10^−9 mol/L, ALM compound 5.0 μg/ml
  Combination Index: No
Etoposide 1 × 10^−10 mol/L, ALM compound 0.1 μg/ml
  Combination Index: 0.083
Etoposide 1 × 10^−10 mol/L, ALM compound 0.5 μg/ml
  Combination Index: 0.515
Etoposide 1 × 10^−10 mol/L, ALM compound 1.0 μg/ml
  Combination Index: No
Etoposide 1 × 10^−10 mol/L, ALM compound 5.0 μg/ml
  Combination Index: No
Irinotecan 1 × 10^−3 mol/L, ALM compound 0.1 μg/ml
  Combination Index: 0.088
Irinotecan 1 × 10^−3 mol/L, ALM compound 0.5 μg/ml
  Combination Index: 0.230
Irinotecan 1 × 10^−3 mol/L, ALM compound 1.0 μg/ml
  Combination Index: 0.438
Irinotecan 1 × 10^−3 mol/L, ALM compound 5.0 μg/ml
  Combination Index: 0.307
Irinotecan 1 × 10^−4 mol/L, ALM compound 0.1 μg/ml
  Combination Index: 0.019
Irinotecan 1 × 10^−4 mol/L, ALM compound 0.5 μg/ml
  Combination Index: 0.005
Irinotecan 1 × 10^−4 mol/L, ALM compound 1.0 μg/ml
  Combination Index: 0.040
Irinotecan 1 × 10^−4 mol/L, ALM compound 5.0 μg/ml
  Combination Index: 0.113
Irinotecan 1 × 10^−5 mol/L, ALM compound 0.1 μg/ml
  Combination Index: No
Irinotecan 1 × 10^−5 mol/L, ALM compound 0.5 μg/ml
  Combination Index: No
Irinotecan 1 × 10^−5 mol/L, ALM compound 1.0 μg/ml
  Combination Index: No
Irinotecan 1 × 10^−5 mol/L, ALM compound 5.0 μg/ml
  Combination Index: No
Irinotecan 1 × 10^−6 mol/L, ALM compound 0.1 μg/ml
  Combination Index: No
Irinotecan 1 × 10^−6 mol/L, ALM compound 0.5 μg/ml
  Combination Index: No
Irinotecan 1 × 10^−6 mol/L, ALM compound 1.0 μg/ml
  Combination Index: No
Irinotecan 1 × 10^−6 mol/L, ALM compound 5.0 μg/ml
  Combination Index: No
Irinotecan 1 × 10^−7 mol/L, ALM compound 0.1 μg/ml
  Combination Index: No
Irinotecan 1 × 10^−7 mol/L, ALM compound 0.5 μg/ml
  Combination Index: No
Irinotecan 1 × 10^−7 mol/L, ALM compound 1.0 μg/ml
  Combination Index: No
Irinotecan 1 × 10^−7 mol/L, ALM compound 5.0 μg/ml
  Combination Index: No
Irinotecan 1 × 10^−8 mol/L, ALM compound 0.1 μg/ml
  Combination Index: 0.514
Irinotecan 1 × 10^−8 mol/L, ALM compound 0.5 μg/ml
  Combination Index: 0.233
Irinotecan 1 × 10^−8 mol/L, ALM compound 1.0 μg/ml
  Combination Index: No
Irinotecan 1 × 10^−8 mol/L, ALM compound 5.0 μg/ml
  Combination Index: No
Irinotecan 1 × 10^−9 mol/L, ALM compound 0.1 μg/ml
  Combination Index: 0.701
Irinotecan 1 × 10^−9 mol/L, ALM compound 0.5 μg/ml
  Combination Index: 0.628
Irinotecan 1 × 10^−9 mol/L, ALM compound 1.0 μg/ml
  Combination Index: No
Irinotecan 1 × 10^−9 mol/L, ALM compound 5.0 μg/ml
  Combination Index: No
Irinotecan 1 × 10^−11 mol/L, ALM compound 0.1 μg/ml
  Combination Index: 0.172
Irinotecan 1 × 10^−11 mol/L, ALM compound 0.5 μg/ml
  Combination Index: 0.484
Irinotecan 1 × 10^−11 mol/L, ALM compound 1.0 μg/ml
  Combination Index: No
Irinotecan 1 × 10^−11 mol/L, ALM compound 5.0 μg/ml
  Combination Index: No
